Measurements: PubChem BioAssay AID2252 (Southern Research Specialized Biocontainment Screening …, 2010)

These compounds were tested on THP-1 viability, CellTiter-Glo luminescence, 72 h (assay: PubChem AID 2252).
Work on `Cc1c(CCN)ccc2c1[nH]c1ccccc12` yielded an EC50 of 22.3 µM. Compound `Cc1c(Cl)cccc1Nc1nc(NCCO)c2ccccc2n1` has an EC50 of 10.1 µM. With `c1ccc2c(c1)OC(CCCN1CCCCC1)c1ccccc1S2` (stereo unspecified) the EC50 was 21.8 µM. `CNCCC=C1c2ccccc2CCc2ccccc21` was tested, and the EC50 was 22.5 µM. `O=C1CN(/N=C/c2ccc([N+](=O)[O-])o2)C(=O)N1` showed an EC50 of 47.3 µM. `Cc1cccc(Nc2c3c(nc4ccccc24)CCC3)c1` was tested, and the EC50 was 6.27 µM. Work on `Fc1cccc(NC(=S)NCc2ccc(Cl)cc2)c1` yielded an EC50 of 46.7 µM. `CC(C)NC(=O)CN1CCN(Cc2nc(C(c3ccccc3)c3ccccc3)no2)CC1` was tested, and the EC50 was less than 0.1 µM. `O=C(CCN1CCC(c2ccccc2)C1)c1ccc2c(c1)OCCO2` (stereo unspecified) showed an EC50 of 21.6 µM. `CN1CCC(=C2c3ccccc3C=Cc3ccccc32)CC1` gave an EC50 of 41.3 µM. Compound `Cc1ccc2c(c1)c1c(n2CC(O)CN2CCC(C)CC2)CCCC1` (stereo unspecified) has an EC50 of 16 µM. Compound `O=S1(=O)Nc2c(ccc3cccnc23)-c2ccccc21` has an EC50 of 1.2 µM. Compound `Cc1ccc(C(=O)NCC(=O)NCCc2ccc(S(N)(=O)=O)cc2)s1` has an EC50 of less than 0.1 µM. Work on `C[C@H]1c2cccc(O)c2C(O)=C2C(=O)C3(O)C(O)=C(C(N)=O)C(=O)[C@@H](N(C)C)[C@@H]3[C@@H](O)[C@@H]21` (stereo partly specified) yielded an EC50 of 30.3 µM. For `CCCCCC[N+](C)(C)CC/C=C1/c2ccccc2Sc2ccc(Cl)cc21`, the EC50 was 5.39 µM. Work on `S=C(Nc1ccc(Cl)c(Cl)c1)NC1CCN(Cc2ccccc2)CC1` yielded an EC50 of 10.7 µM. `Cc1cc(/C=C\c2ccc3cc(N(C)C)ccc3[n+]2C)c(C)n1-c1ccccc1` gave an EC50 of 4.95 µM. Work on `COc1cc([N+](=O)[O-])cc(/C=N/NC(=O)C(O)(c2ccccc2)c2ccccc2)c1O` yielded an EC50 of 25.4 µM. `O=C(N/N=C/c1ccc(O)c(O)c1)C1c2ccccc2Oc2ccccc21` was tested, and the EC50 was 42 µM. Compound `COc1ccc(Nc2ccnc3ccccc23)cc1` has an EC50 of 30.7 µM. `CC(C)C1N=C(c2ccc3c(c2)OCO3)CC(c2ccccc2O)N1` (stereo unspecified) was tested, and the EC50 was 43.3 µM. Work on `COc1ccc(/C=C/C(=O)NC(=S)NNC(=O)c2cnccn2)cc1` yielded an EC50 of 2.81 µM. `O=[N+]([O-])c1ccc(/C=N/NC(=S)Nc2ccc(Cl)cc2Cl)s1` gave an EC50 of 47.5 µM. `Cc1ccc(CNCCC2=CCCCC2)cc1` showed an EC50 of 26.7 µM. For `NC1=NC[C@H](CC2CCCCC2)N1CCc1cc(C(F)(F)F)cc(C(F)(F)F)c1`, the EC50 was 6.33 µM. Work on `O=C(CSc1cccc2cccnc12)Nc1ccc(S(=O)(=O)N2CCOCC2)cc1` yielded an EC50 of 24.3 µM. `Nc1nc(F)nc2c1ncn2[C@@H]1O[C@H](CO)[C@@H](O)[C@H]1O` showed an EC50 of 0.35 µM. `O=C(/C=C/c1ccccc1)c1cc(Br)ccc(=O)c1O` was tested, and the EC50 was 10.5 µM. For `O=Cc1c(Cl)nc2ccccn2c1=O`, the EC50 was 21.7 µM. For `O=C(N/N=C/c1ccc([N+](=O)[O-])o1)c1ccc(O)cc1`, the EC50 was 13.1 µM. `CCOc1ccc(Nc2nc(NCC3CCCO3)c3ccccc3n2)cc1` (stereo unspecified) showed an EC50 of 2.28 µM. With `CCN1CCN(C2=C(NS(=O)(=O)c3ccc(Br)cc3)C(=O)c3ccccc3C2=O)CC1` the EC50 was 18.2 µM. `COc1cc(CNCCO)cc(Cl)c1OCc1ccc(Cl)cc1Cl` was tested, and the EC50 was 10.8 µM. Work on `Cc1ccc(-n2c(-c3ccc(Br)cc3)c[n+]3c2CCc2ccc4cccnc4c2-3)cc1` yielded an EC50 of 0.76 µM. With `CSc1ccc2c(c1)C(N1CCN(C)CC1)Cc1ccccc1S2` (stereo unspecified) the EC50 was 9.33 µM. `CCN1CCN(CCCNC(=O)c2ccc(/C=C3/Sc4ccccc4N(Cc4ccccc4F)C3=O)cc2)CC1` was tested, and the EC50 was 11.2 µM. `CCCCCNC(=O)c1cn(CC)c2cc(N3CCN(C)CC3)c(F)cc2c1=O` gave an EC50 of 19.8 µM. With `CC1=NN(c2nc3ccccc3[nH]2)C(=O)C1Cc1ccccc1` (stereo unspecified) the EC50 was 1.85 µM. Work on `COCCCNC(=S)NNC(=O)c1ccccn1` yielded an EC50 of 38 µM. Compound `COc1cc([N+](=O)[O-])cc(/C=N/NC(=O)c2cccnc2)c1O` has an EC50 of 29.7 µM. `CCN(CC)CCn1c(NCc2cc(OC)ccc2OC)nc2ccccc21` gave an EC50 of 42.7 µM. `Cc1ccc2c(c1)C1CN(C)CCC1N2Sc1ccccc1[N+](=O)[O-]` (stereo unspecified) was tested, and the EC50 was 21.1 µM. Work on `CNC(CC(=O)c1ccc([N+](=O)[O-])cc1)C(Cl)(Cl)Cl` (stereo unspecified) yielded an EC50 of 9.95 µM. Work on `O=C(N/N=C\c1cccc([N+](=O)[O-])c1O)C1COc2ccccc2O1` (stereo unspecified) yielded an EC50 of 25.4 µM. `CCCCCCCCCCCCCCCC[n+]1ccc(C(N)=O)cc1` gave an EC50 of 0.68 µM. Compound `Oc1ccc(N=Nc2ccc(Br)cc2)c(O)c1` has an EC50 of 17.8 µM. With `O=C(NNc1nc2ccc(F)cc2s1)c1cccc(F)c1` the EC50 was 8.07 µM. `COc1ccc(C(=O)NC(=S)NNC(=O)c2cccnc2)cc1` gave an EC50 of 21.4 µM. With `Cc1nc2c(=O)n(C)c(=O)nc-2n(C)n1` the EC50 was 2.17 µM. `O=C(Nc1nc(-c2ccccn2)cs1)c1ccc(Br)s1` was tested, and the EC50 was 1.19 µM. `O=C(N/N=C/c1cc(O)ccc1Br)c1cccnc1` gave an EC50 of 2.86 µM. In the case of `O=C(N=Nc1c(O)[nH]c2ccccc12)c1cc(-c2cccs2)[nH]n1`, the EC50 is reported as less than 0.1 µM. `CCOC(=O)c1nc(C)n(-c2cc(Cl)ccc2Cl)n1` gave an EC50 of 14.9 µM. In the case of `CCN(CC)CCn1c(=N)n(CC(O)COc2cccc(C)c2)c2ccccc21` (stereo unspecified), the EC50 is reported as 16.2 µM. `OCCNc1nc(Nc2ccc(Br)cc2)nc2ccccc12` showed an EC50 of 0.62 µM. In the case of `COc1cccc(Nc2cc(C)nc3ccccc23)c1`, the EC50 is reported as 30.5 µM. `O=C1c2c(O)ccc(O)c2C(=O)c2c(NCCNCCO)ccc(NCCNCCO)c21` gave an EC50 of less than 0.1 µM. With `CCCN1CCC(NCc2cn(C)nc2-c2ccc(Oc3ccccc3)cc2)CC1` the EC50 was 9.72 µM. Work on `CC1CCN(c2nc3ccc(C(=O)NCCCN4CCCCC4)cc3s2)CC1` yielded an EC50 of 30.7 µM. With `CCCCCCCCn1ccc(=N)cc1` the EC50 was 5.47 µM. In the case of `O=C(CC(=O)c1c(F)cccc1Cl)c1ccccc1O`, the EC50 is reported as 27.4 µM. In the case of `CCN1CCN(Cc2ccc(NC(=O)c3cc(NC(=O)c4cc(-c5ccc(OC)cc5)n[nH]4)cc(OC)c3)cc2C(F)(F)F)CC1`, the EC50 is reported as 3.92 µM. `CCN(CC)CCSc1nnc2c3ccccc3n(Cc3ccccc3)c2n1` showed an EC50 of 26.3 µM. `O=C(CNCCC1=CCCCC1)Nc1ccc(N2CCCCCC2)cc1` showed an EC50 of 15.6 µM. `Cc1ccc(-c2c[n+](Cc3ccc(Cl)c(Cl)c3)c3n2CCC3)cc1` gave an EC50 of 4.37 µM. `CCc1cccc2c1Sc1ccccc1CC2N1CCNCC1` (stereo unspecified) gave an EC50 of 9.72 µM. `N=c1n(CCN2CCCCC2)c2ccccc2n1CC(O)COc1ccccc1` (stereo unspecified) was tested, and the EC50 was 28.7 µM. Work on `COc1ccc(Nc2nc(-c3ccccc3)nc3ccccc23)cc1S(=O)(=O)N1CCOCC1` yielded an EC50 of 39 µM. `Cn1c(N/N=C/c2c[nH]c3ccccc23)nc2ccccc21` was tested, and the EC50 was 8.11 µM. `Cc1ccc(C(OCC(O)CNCc2ccc(F)cc2)c2ccccc2)cc1` (stereo unspecified) gave an EC50 of 13 µM. For `N=c1c2c(n(Cc3ccc(Cl)c(Cl)c3)c3c1CCC3)CCCC2`, the EC50 was 4.66 µM. `CCCCc1ccc(N/C(N)=N/c2nc(C)cc(C)n2)cc1` was tested, and the EC50 was 6.47 µM. With `COc1cccc(/C=N/NC(=O)C(=O)N2CCCC2)c1O` the EC50 was 40 µM. `Cc1ccc(-c2cc(N)nc(-c3ccccc3)c2)cc1` gave an EC50 of 28.6 µM. With `Cc1ccccc1Nc1cc(C)c2c(O)cccc2n1` the EC50 was 5.03 µM. Work on `O=C(N/N=C/c1cc(Cl)ccc1O)c1cccnc1` yielded an EC50 of 2.87 µM. `O=C(Nc1ccccc1)Nc1cccc(Cl)c1` was tested, and the EC50 was 43.7 µM. In the case of `OC(CNCCc1ccc(Cl)cc1)COc1cc(Cl)ccc1Cl` (stereo unspecified), the EC50 is reported as 29.8 µM. Compound `CCCCCc1ccc(OCCCC[n+]2cccc(C)c2)c(CCCCC)c1` has an EC50 of 1.05 µM. `N/C(=N\N=C/c1ccc(F)cc1)N/N=C\c1ccc(F)cc1` gave an EC50 of 19 µM. Work on `CN1CCN(C(c2ccc(Br)cc2)c2cc(Cl)c3cccnc3c2O)CC1` (stereo unspecified) yielded an EC50 of 2 µM. Compound `CCCCCCCSc1cc(OC)c(CCN(C)C)cc1OC` has an EC50 of 9.51 µM. With `CCCCCCCCCCC[N+](C)(C)CC/C=C1/c2ccccc2Sc2ccc(Cl)cc21` the EC50 was 2.58 µM. In the case of `c1ccc2c(c1)CCc1ccccc1C2=C1CCNCC1`, the EC50 is reported as 25.2 µM. `CC(C(=O)c1ccc(-c2ccccc2)cc1)[n+]1cccc(NC(=O)c2ccccc2)c1` (stereo unspecified) showed an EC50 of 17.7 µM. `c1ccc(CNc2nc(-c3ccccn3)nc3ccccc23)cc1` was tested, and the EC50 was 1.72 µM.
